# Results as given in PubChem BioAssay AID1919000 (Molecular Pharmacology Branch, DTP, NCI, 2023).
# Test system: 653999-131-R-J2-PDC complex spheroids, growth % test/control
# Assay: Anticancer human tumor 653999-131-R-J2-PDC patient-derived lung adenocarcinoma cell line growth inhibition [AhR]
# Details: for IC50: curve of first compound; for viability, T/C: stronger effect = lower value
# Summary of the method: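 Spheroids combined tumor cells with HUVEC endothelial cells and human MSCs as stroma. AhR antagonists were paired with standard or investigational drugs, each dosed in half-log steps down from near clinical Cmax, or from 10 microM where Cmax was unknown.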
# [1] = second compound 0.1 µM, first compound 0.0316 µM
# [2] = second compound 0.1 µM, first compound 0.1 µM
# [3] = second compound 0.1 µM, first compound 0.316 µM
# [4] = second compound 0.1 µM, first compound 1 µM
# [5] = second compound 0.316 µM, first compound 0.0316 µM
# [6] = second compound 0.316 µM, first compound 0.1 µM
# [7] = second compound 0.316 µM, first compound 0.316 µM
# [8] = second compound 0.316 µM, first compound 1 µM
# [9] = second compound 1 µM, first compound 0.0316 µM
# [10] = second compound 1 µM, first compound 0.1 µM
# [11] = second compound 1 µM, first compound 0.316 µM
# [12] = second compound 1 µM, first compound 1 µM
# [13] = second compound 3.16 µM, first compound 0.0316 µM
# [14] = second compound 3.16 µM, first compound 0.1 µM
# [15] = second compound 3.16 µM, first compound 0.316 µM
# [16] = second compound 3.16 µM, first compound 1 µM
# [17] = second compound 10 µM, first compound 0.0316 µM
# [18] = second compound 10 µM, first compound 0.1 µM
# [19] = second compound 10 µM, first compound 0.316 µM
# [20] = second compound 10 µM, first compound 1 µM
# 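Note: spheroids exposed to agents for seven days.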
# 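Throughout, for viability, T/C: 100% = DMSO vehicle control viability.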
smiles,measurement,setting,value
CCN(c1cc(-c2ccc(CN3CCOCC3)cc2)cc(C(=O)NCc2c(C)cc(C)[nH]c2=O)c1C)C1CCOCC1 + CC(CO)NC(=O)c1cc(-c2ccc(Cl)cc2)nn(-c2cnn(C)c2)c1=O,IC50,second compound 0.1 µM,> 3 µM
same,IC50,second compound 0.316 µM,> 3 µM
same,IC50,second compound 1 µM,> 3 µM
same,IC50,second compound 3.16 µM,> 3 µM
same,IC50,second compound 10 µM,> 3 µM
same,"viability, T/C","second compound 0.1 µM, first compound 0.00949 µM",112%
same,"viability, T/C","second compound 0.1 µM, first compound 0.03 µM",97.6%
same,"viability, T/C","second compound 0.1 µM, first compound 0.0949 µM",120%
same,"viability, T/C","second compound 0.1 µM, first compound 0.3 µM",95.9%
same,"viability, T/C","second compound 0.1 µM, first compound 0.949 µM",93.9%
same,"viability, T/C","second compound 0.1 µM, first compound 3 µM",90%
same,"viability, T/C","second compound 0.316 µM, first compound 0.00949 µM",119%
same,"viability, T/C","second compound 0.316 µM, first compound 0.03 µM",107%
same,"viability, T/C","second compound 0.316 µM, first compound 0.0949 µM",101%
same,"viability, T/C","second compound 0.316 µM, first compound 0.3 µM",94.6%
same,"viability, T/C","second compound 0.316 µM, first compound 0.949 µM",101%
same,"viability, T/C","second compound 0.316 µM, first compound 3 µM",94.1%
same,"viability, T/C","second compound 1 µM, first compound 0.00949 µM",115%
same,"viability, T/C","second compound 1 µM, first compound 0.03 µM",134%
same,"viability, T/C","second compound 1 µM, first compound 0.0949 µM",115%
same,"viability, T/C","second compound 1 µM, first compound 0.3 µM",114%
same,"viability, T/C","second compound 1 µM, first compound 0.949 µM",105%
same,"viability, T/C","second compound 1 µM, first compound 3 µM",102%
same,"viability, T/C","second compound 3.16 µM, first compound 0.00949 µM",112%
same,"viability, T/C","second compound 3.16 µM, first compound 0.03 µM",113%
same,"viability, T/C","second compound 3.16 µM, first compound 0.0949 µM",119%
same,"viability, T/C","second compound 3.16 µM, first compound 0.3 µM",114%
same,"viability, T/C","second compound 3.16 µM, first compound 0.949 µM",106%
same,"viability, T/C","second compound 3.16 µM, first compound 3 µM",99.6%
same,"viability, T/C","second compound 10 µM, first compound 0.00949 µM",111%
same,"viability, T/C","second compound 10 µM, first compound 0.03 µM",117%
same,"viability, T/C","second compound 10 µM, first compound 0.0949 µM",130%
same,"viability, T/C","second compound 10 µM, first compound 0.3 µM",114%
same,"viability, T/C","second compound 10 µM, first compound 0.949 µM",105%
same,"viability, T/C","second compound 10 µM, first compound 3 µM",96.1%
Nc1ncn(C2CC(O)C(CO)O2)c(=O)n1 (stereo not given) + Cc1cncc(-c2nc(NCCc3c[nH]c4ccccc34)c3ncn(C(C)C)c3n2)c1,IC50,second compound 0.1 µM,> 1 µM
same,IC50,second compound 0.316 µM,> 1 µM
same,IC50,second compound 1 µM,> 1 µM
same,IC50,second compound 3.16 µM,> 1 µM
same,IC50,second compound 10 µM,0.21 µM
same,"viability, T/C","second compound 0.1 µM, first compound 0.00316 µM",96.2%
same,"viability, T/C","second compound 0.1 µM, first compound 0.01 µM",86.1%
same,"viability, T/C",[1],92.3%
same,"viability, T/C",[2],86.5%
same,"viability, T/C",[3],88.2%
same,"viability, T/C",[4],77.5%
same,"viability, T/C","second compound 0.316 µM, first compound 0.00316 µM",91.2%
same,"viability, T/C","second compound 0.316 µM, first compound 0.01 µM",94%
same,"viability, T/C",[5],90.8%
same,"viability, T/C",[6],85.1%
same,"viability, T/C",[7],87.7%
same,"viability, T/C",[8],83.6%
same,"viability, T/C","second compound 1 µM, first compound 0.00316 µM",106%
same,"viability, T/C","second compound 1 µM, first compound 0.01 µM",108%
same,"viability, T/C",[9],99.2%
same,"viability, T/C",[10],99.2%
same,"viability, T/C",[11],94.1%
same,"viability, T/C",[12],82%
same,"viability, T/C","second compound 3.16 µM, first compound 0.00316 µM",98.7%
same,"viability, T/C","second compound 3.16 µM, first compound 0.01 µM",95.2%
same,"viability, T/C",[13],106%
same,"viability, T/C",[14],98.3%
same,"viability, T/C",[15],96.9%
same,"viability, T/C",[16],90.2%
same,"viability, T/C","second compound 10 µM, first compound 0.00316 µM",54.6%
same,"viability, T/C","second compound 10 µM, first compound 0.01 µM",52.4%
same,"viability, T/C",[17],54%
same,"viability, T/C",[18],51.9%
same,"viability, T/C",[19],49.2%
same,"viability, T/C",[20],47.2%
O=C(c1cc(Cc2n[nH]c(=O)c3ccccc23)ccc1F)N1CCN(C(=O)C2CC2)CC1 + Cc1cncc(-c2nc(NCCc3c[nH]c4ccccc34)c3ncn(C(C)C)c3n2)c1,IC50,second compound 0.1 µM,> 10 µM
same,IC50,second compound 0.316 µM,> 10 µM
same,IC50,second compound 1 µM,> 10 µM
same,IC50,second compound 3.16 µM,> 10 µM
same,IC50,second compound 10 µM,3.01 µM
same,"viability, T/C",[1],99.2%
same,"viability, T/C",[2],101%
same,"viability, T/C",[3],92.2%
same,"viability, T/C",[4],94%
same,"viability, T/C","second compound 0.1 µM, first compound 3.16 µM",97.7%
same,"viability, T/C","second compound 0.1 µM, first compound 10 µM",79.3%
same,"viability, T/C",[5],96.2%
same,"viability, T/C",[6],106%
same,"viability, T/C",[7],97.1%
same,"viability, T/C",[8],102%
same,"viability, T/C","second compound 0.316 µM, first compound 3.16 µM",91.5%
same,"viability, T/C","second compound 0.316 µM, first compound 10 µM",86.3%
same,"viability, T/C",[9],108%
same,"viability, T/C",[10],114%
same,"viability, T/C",[11],112%
same,"viability, T/C",[12],103%
same,"viability, T/C","second compound 1 µM, first compound 3.16 µM",96.9%
same,"viability, T/C","second compound 1 µM, first compound 10 µM",91.3%
same,"viability, T/C",[13],102%
same,"viability, T/C",[14],109%
same,"viability, T/C",[15],112%
same,"viability, T/C",[16],114%
same,"viability, T/C","second compound 3.16 µM, first compound 3.16 µM",101%
same,"viability, T/C","second compound 3.16 µM, first compound 10 µM",91.3%
same,"viability, T/C",[17],61.2%
same,"viability, T/C",[18],61.1%
same,"viability, T/C",[19],55.1%
same,"viability, T/C",[20],55.5%
same,"viability, T/C","second compound 10 µM, first compound 3.16 µM",49.3%
same,"viability, T/C","second compound 10 µM, first compound 10 µM",44.7%
